Data: article doi:10.1101/2020.08.04.236877v1 (biorxiv, 2020)

Tests used:
Potassium Channel hERG = Potassium Channel hERG (Homo sapiens, UniProt Q12809); assay: in vitro
[1] = biological target: Nicotinic Acetylcholine α3β4 (Homo sapiens, UniProt P30926+P32297); assay: biochemical; details: read-out: % inhibition or stimulation (human)
Adrenergic α1D = Adrenergic α1D (Homo sapiens, UniProt P25100); assay: biochemical; details: read-out: % inhibition or stimulation (human)
Opiate κ (OP2, KOP) = Opiate κ (OP2, KOP) (Homo sapiens, UniProt P41145); assay: biochemical; details: read-out: % inhibition or stimulation (human)
Opiate δ1 (OP1, DOP) = Opiate δ1 (OP1, DOP) (Homo sapiens, UniProt P41143); assay: biochemical; details: read-out: % inhibition or stimulation (human)
Opiate µ (OP3, MOP) = Opiate µ (OP3, MOP) (Homo sapiens, UniProt P35372); assay: biochemical; details: read-out: % inhibition or stimulation (human)
Dopamine D1 = Dopamine D1 (Homo sapiens, UniProt P21728); assay: biochemical; details: read-out: % inhibition or stimulation (human)
Neuropeptide Y Y1 = Neuropeptide Y Y1 (Homo sapiens, UniProt P25929); assay: biochemical; details: read-out: % inhibition or stimulation (human)
Endothelin ETA = Endothelin ETA (Homo sapiens, UniProt P25101); assay: biochemical; details: read-out: % inhibition or stimulation (human)
Sigma σ1 = Sigma σ1 (Homo sapiens, UniProt Q99720); assay: biochemical; details: read-out: % inhibition or stimulation (human)
[2] = biological target: Serotonin (5-Hydroxytryptamine) 5-HT1A (Homo sapiens, UniProt P08908); assay: biochemical; details: read-out: % inhibition or stimulation (human)
Adrenergic α1B = Adrenergic α1B (Homo sapiens, UniProt P35368); assay: biochemical; details: read-out: % inhibition or stimulation (human)
Adrenergic β1 = Adrenergic β1 (Homo sapiens, UniProt P08588); assay: biochemical; details: read-out: % inhibition or stimulation (human)
Cannabinoid CB1 = Cannabinoid CB1 (Homo sapiens, UniProt P21554); assay: biochemical; details: read-out: % inhibition or stimulation (human)
Estrogen ERα = Estrogen ERα (Homo sapiens, UniProt P03372); assay: biochemical; details: read-out: % inhibition or stimulation (human)
Melatonin MT1 = Melatonin MT1 (Homo sapiens, UniProt P48039); assay: biochemical; details: read-out: % inhibition or stimulation (human)
Endothelin ETB = Endothelin ETB (Homo sapiens, UniProt P24530); assay: biochemical; details: read-out: % inhibition or stimulation (human)
Dopamine D2S = Dopamine D2S (Homo sapiens, UniProt P14416); assay: biochemical; details: read-out: % inhibition or stimulation (human)
Adrenergic α2A = Adrenergic α2A (Homo sapiens, UniProt P08913); assay: biochemical; details: read-out: % inhibition or stimulation (human)
Muscarinic M3 = Muscarinic M3 (Homo sapiens, UniProt P20309); assay: biochemical; details: read-out: % inhibition or stimulation (human)
[3] = biological target: Nicotinic Acetylcholine α1, Bungarotoxin (Homo sapiens, UniProt P02708); assay: biochemical; details: read-out: % inhibition or stimulation (human)
Muscarinic M1 = Muscarinic M1 (Homo sapiens, UniProt P11229); assay: biochemical; details: read-out: % inhibition or stimulation (human)
Bradykinin B1 = Bradykinin B1 (Homo sapiens, UniProt P46663); assay: biochemical; details: read-out: % inhibition or stimulation (human)
Adenosine A2A = Adenosine A2A (Homo sapiens, UniProt P29274); assay: biochemical; details: read-out: % inhibition or stimulation (human)
Neuropeptide Y Y2 = Neuropeptide Y Y2 (Homo sapiens, UniProt P49146); assay: biochemical; details: read-out: % inhibition or stimulation (human)
Adenosine A1 = Adenosine A1 (Homo sapiens, UniProt P30542); assay: biochemical; details: read-out: % inhibition or stimulation (human)
[4] = biological target: Serotonin (5-Hydroxytryptamine) 5-HT3 (Homo sapiens, UniProt P46098); assay: biochemical; details: read-out: % inhibition or stimulation (human)
Adrenergic β2 = Adrenergic β2 (Homo sapiens, UniProt P07550); assay: biochemical; details: read-out: % inhibition or stimulation (human)
Adenosine A3 = Adenosine A3 (Homo sapiens, UniProt P0DMS8); assay: biochemical; details: read-out: % inhibition or stimulation (human)
Histamine H3 = Histamine H3 (Homo sapiens, UniProt Q9Y5N1); assay: biochemical; details: read-out: % inhibition or stimulation (human)
[5] = biological target: Transporter, Serotonin (5- Hydroxytryptamine) (SERT) (Homo sapiens, UniProt P31645); assay: biochemical; details: read-out: % inhibition or stimulation (human)
Histamine H1 = Histamine H1 (Homo sapiens, UniProt P35367); assay: biochemical; details: read-out: % inhibition or stimulation (human)
[6] = biological target: Leukotriene, Cysteinyl CysLT1 (Homo sapiens, UniProt Q9Y271); assay: biochemical; details: read-out: % inhibition or stimulation (human)
Interleukin IL-1 R1 = Interleukin IL-1 R1 (Homo sapiens, UniProt P14778); assay: biochemical; details: read-out: % inhibition or stimulation (human)
Bradykinin B2 = Bradykinin B2 (Homo sapiens, UniProt P30411); assay: biochemical; details: read-out: % inhibition or stimulation (human)
Muscarinic M2 = Muscarinic M2 (Homo sapiens, UniProt P08172); assay: biochemical; details: read-out: % inhibition or stimulation (human)
Dopamine D4.4 = Dopamine D4.4 (Homo sapiens, UniProt P21917); assay: biochemical; details: read-out: % inhibition or stimulation (human)
Dopamine D3 = Dopamine D3 (Homo sapiens, UniProt P35462); assay: biochemical; details: read-out: % inhibition or stimulation (human)
Prostanoid EP4 = Prostanoid EP4 (Homo sapiens, UniProt P35408); assay: biochemical; details: read-out: % inhibition or stimulation (human)
Adrenergic α1A = Adrenergic α1A (Homo sapiens, UniProt P35348); assay: biochemical; details: read-out: % inhibition or stimulation (human)
Tachykinin NK1 = Tachykinin NK1 (Homo sapiens, UniProt P25103); assay: biochemical; details: read-out: % inhibition or stimulation (human)
Androgen (Testosterone) = Androgen (Testosterone) (Homo sapiens, UniProt P10275); assay: radioligand binding assay; details: read-out: % inhibition at 10 μM
[7] = biological target: Epidermal Growth Factor (EGF) (Homo sapiens, UniProt P00533); assay: biochemical; details: read-out: % inhibition or stimulation (human)
[8] = biological target: Transporter, Dopamine (DAT) (Homo sapiens, UniProt Q01959); assay: radioligand binding assay; details: read-out: % inhibition at 10 μM
Histamine H2 = Histamine H2 (Homo sapiens, UniProt P25021); assay: radioligand binding assay; details: read-out: % inhibition or stimulation at 10 μM
Serotonin 5-HT2B = Serotonin 5-HT2B (Homo sapiens, UniProt P41595); assay: radioligand binding assay; details: read-out: % inhibition at 10 μM
[9] = biological target: Transporter, Norepinephrine (NET) (Homo sapiens, UniProt P23975); assay: radioligand binding assay; details: read-out: % inhibition at 10 μM
[10] = biological target: Platelet Activating Factor (PAF) (Homo sapiens, UniProt P25105); assay: biochemical; details: read-out: % inhibition or stimulation (human)
Glucocorticoid = Glucocorticoid (Homo sapiens, UniProt P04150); assay: biochemical; details: read-out: % inhibition or stimulation (human)

Sequence of Serotonin 5-HT2B (P41595 whole entry): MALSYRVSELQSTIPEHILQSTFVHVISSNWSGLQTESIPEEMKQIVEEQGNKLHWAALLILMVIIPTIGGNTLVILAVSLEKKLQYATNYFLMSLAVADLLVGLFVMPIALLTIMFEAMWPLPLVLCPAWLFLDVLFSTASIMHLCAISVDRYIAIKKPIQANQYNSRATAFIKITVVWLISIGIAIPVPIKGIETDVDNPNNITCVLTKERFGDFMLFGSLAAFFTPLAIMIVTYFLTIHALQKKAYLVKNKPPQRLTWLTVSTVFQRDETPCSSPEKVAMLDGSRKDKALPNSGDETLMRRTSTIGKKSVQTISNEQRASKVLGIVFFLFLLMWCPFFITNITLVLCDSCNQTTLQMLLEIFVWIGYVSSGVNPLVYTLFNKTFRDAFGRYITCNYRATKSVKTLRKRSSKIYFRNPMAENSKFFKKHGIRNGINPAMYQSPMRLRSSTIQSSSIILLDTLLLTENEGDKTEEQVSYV
Sequence of Serotonin (5-Hydroxytryptamine) 5-HT1A (P08908 whole entry): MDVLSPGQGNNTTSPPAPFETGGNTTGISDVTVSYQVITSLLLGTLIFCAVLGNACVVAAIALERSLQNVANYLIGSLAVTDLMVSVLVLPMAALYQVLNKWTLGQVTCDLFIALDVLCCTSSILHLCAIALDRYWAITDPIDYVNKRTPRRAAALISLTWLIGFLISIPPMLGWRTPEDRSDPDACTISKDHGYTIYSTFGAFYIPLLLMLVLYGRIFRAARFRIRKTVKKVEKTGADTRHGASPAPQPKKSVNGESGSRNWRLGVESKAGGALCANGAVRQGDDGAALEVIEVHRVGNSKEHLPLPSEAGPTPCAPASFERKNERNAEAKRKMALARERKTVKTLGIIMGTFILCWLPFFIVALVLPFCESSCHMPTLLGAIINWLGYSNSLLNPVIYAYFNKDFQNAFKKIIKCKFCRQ
Sequence of Dopamine D2S (P14416 whole entry): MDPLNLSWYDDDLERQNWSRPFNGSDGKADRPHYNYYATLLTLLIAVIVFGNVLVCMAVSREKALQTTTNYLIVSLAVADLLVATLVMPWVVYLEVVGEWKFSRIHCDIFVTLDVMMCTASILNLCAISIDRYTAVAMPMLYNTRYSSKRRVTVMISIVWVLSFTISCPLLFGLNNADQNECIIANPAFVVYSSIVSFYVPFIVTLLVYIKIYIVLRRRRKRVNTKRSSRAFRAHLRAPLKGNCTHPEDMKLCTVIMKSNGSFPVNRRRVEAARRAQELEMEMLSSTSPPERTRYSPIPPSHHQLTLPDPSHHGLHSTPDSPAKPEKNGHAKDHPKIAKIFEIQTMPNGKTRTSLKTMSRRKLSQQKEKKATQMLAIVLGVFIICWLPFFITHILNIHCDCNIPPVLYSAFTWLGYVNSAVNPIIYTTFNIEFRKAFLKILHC
Sequence of Adrenergic α1A (P35348 whole entry): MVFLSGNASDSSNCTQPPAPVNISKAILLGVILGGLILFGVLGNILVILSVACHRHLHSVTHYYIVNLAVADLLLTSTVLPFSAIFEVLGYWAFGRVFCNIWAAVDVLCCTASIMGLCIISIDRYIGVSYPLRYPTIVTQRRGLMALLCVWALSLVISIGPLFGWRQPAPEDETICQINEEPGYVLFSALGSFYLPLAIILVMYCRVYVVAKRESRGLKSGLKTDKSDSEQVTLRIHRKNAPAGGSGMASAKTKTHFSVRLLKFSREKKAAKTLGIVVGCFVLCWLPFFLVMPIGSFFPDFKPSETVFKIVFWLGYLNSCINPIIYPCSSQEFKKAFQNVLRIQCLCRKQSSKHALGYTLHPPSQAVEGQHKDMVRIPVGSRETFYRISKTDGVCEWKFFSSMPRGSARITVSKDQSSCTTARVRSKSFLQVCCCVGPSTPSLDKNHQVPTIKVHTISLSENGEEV
Sequence of Adrenergic β2 (P07550 whole entry): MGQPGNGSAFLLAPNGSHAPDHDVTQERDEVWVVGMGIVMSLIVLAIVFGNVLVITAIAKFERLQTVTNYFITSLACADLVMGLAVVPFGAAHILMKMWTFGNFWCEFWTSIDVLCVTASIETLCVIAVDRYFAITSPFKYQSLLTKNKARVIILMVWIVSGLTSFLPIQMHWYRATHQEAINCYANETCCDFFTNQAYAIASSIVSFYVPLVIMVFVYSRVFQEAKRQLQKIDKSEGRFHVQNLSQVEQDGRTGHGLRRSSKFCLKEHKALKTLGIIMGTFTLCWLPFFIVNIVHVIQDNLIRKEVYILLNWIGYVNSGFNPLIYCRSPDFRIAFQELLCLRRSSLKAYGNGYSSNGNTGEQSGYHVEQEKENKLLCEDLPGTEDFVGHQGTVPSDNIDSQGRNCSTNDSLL
Sequence of Nicotinic Acetylcholine α3β4 (P30926 whole entry): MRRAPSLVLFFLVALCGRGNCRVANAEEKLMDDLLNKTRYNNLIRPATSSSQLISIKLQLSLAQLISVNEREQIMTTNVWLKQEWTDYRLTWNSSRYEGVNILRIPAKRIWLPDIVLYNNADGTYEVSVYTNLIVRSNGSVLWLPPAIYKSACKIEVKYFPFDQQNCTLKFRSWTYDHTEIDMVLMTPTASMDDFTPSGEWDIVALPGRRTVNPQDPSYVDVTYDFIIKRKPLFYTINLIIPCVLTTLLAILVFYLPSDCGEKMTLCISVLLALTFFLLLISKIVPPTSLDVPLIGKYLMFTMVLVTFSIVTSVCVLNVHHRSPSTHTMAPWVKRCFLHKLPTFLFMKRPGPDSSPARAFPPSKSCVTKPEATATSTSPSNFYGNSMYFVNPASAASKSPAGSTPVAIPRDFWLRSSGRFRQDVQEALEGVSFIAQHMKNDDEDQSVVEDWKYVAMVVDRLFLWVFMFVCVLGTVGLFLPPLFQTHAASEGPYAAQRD
Sequence of Nicotinic Acetylcholine α3β4 (P32297 whole entry): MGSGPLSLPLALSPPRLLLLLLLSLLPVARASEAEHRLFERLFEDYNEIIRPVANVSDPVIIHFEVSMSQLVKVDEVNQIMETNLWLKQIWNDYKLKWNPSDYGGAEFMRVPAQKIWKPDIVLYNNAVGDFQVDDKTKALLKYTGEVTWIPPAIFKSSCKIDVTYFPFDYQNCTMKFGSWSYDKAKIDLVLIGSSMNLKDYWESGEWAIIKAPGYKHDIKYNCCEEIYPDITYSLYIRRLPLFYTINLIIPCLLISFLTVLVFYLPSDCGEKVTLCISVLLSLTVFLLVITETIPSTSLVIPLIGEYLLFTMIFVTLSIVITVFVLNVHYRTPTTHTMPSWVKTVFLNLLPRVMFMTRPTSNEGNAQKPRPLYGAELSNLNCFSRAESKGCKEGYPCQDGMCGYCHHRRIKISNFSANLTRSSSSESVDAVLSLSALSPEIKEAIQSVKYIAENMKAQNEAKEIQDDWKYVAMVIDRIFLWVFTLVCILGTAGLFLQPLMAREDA
Sequence of Dopamine D3 (P35462 whole entry): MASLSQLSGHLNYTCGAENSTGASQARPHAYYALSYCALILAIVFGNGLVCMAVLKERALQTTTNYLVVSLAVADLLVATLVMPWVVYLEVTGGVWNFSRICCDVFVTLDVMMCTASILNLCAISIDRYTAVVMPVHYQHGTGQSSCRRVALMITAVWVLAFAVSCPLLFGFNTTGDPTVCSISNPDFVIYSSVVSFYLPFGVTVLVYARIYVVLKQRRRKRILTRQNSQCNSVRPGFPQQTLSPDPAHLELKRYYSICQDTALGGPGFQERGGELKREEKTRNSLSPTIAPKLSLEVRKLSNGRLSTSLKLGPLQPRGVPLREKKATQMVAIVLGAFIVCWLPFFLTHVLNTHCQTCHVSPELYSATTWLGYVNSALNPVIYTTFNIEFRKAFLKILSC
Sequence of Epidermal Growth Factor (EGF) (P00533 whole entry): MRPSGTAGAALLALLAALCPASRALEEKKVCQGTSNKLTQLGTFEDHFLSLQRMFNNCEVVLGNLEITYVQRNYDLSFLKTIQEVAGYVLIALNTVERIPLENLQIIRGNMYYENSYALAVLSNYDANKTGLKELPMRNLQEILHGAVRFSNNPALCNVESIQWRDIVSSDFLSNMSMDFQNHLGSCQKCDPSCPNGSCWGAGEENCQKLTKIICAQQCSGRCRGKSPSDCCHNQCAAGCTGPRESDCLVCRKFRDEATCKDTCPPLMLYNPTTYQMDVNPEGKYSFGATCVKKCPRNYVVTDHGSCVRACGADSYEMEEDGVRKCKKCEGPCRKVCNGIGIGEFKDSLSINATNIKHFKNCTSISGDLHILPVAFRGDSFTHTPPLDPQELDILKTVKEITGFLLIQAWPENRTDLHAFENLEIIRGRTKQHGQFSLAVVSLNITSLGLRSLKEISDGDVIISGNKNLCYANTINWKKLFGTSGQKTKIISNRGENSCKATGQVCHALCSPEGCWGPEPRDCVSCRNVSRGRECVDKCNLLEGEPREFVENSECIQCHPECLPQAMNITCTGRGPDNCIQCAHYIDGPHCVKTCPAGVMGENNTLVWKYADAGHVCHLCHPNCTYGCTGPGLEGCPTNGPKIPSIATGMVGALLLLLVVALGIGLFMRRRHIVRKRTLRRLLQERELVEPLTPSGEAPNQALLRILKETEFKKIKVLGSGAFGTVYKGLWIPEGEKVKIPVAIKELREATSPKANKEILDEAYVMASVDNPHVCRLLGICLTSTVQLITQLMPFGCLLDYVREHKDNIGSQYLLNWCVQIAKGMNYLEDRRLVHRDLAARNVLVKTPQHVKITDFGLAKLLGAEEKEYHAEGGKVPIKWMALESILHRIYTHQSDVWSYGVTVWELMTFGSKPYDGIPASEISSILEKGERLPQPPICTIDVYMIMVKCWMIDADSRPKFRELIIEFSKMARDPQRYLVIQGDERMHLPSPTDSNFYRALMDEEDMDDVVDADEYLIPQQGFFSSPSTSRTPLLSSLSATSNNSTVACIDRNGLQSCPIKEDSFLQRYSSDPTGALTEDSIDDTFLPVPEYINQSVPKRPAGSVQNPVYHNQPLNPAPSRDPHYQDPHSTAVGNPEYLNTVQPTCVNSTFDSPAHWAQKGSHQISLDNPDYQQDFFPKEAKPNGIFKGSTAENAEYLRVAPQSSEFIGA

Molecule `CC(C)(C)c1ccc(C2=C(/C=N/O)CCC2)cc1` [8n, (E)-2-(4-(tert-butyl)phenyl)cyclopent-1-ene-1-carbaldehyde oxime] has an inhibition at 10 µM (Potassium Channel hERG) of 25%, an inhibition at 10 µM [1] of -1% and an inhibition at 10 µM (Adrenergic α1D) of 7%. It also gave an inhibition at 10 µM (Opiate κ (OP2, KOP)) of 0%, an inhibition at 10 µM (Opiate δ1 (OP1, DOP)) of 7% and an inhibition at 10 µM (Opiate µ (OP3, MOP)) of 9%. For the same molecule, the inhibition at 10 µM (Dopamine D1) was 30%, the inhibition at 10 µM (Neuropeptide Y Y1) was -6% and the inhibition at 10 µM (Endothelin ETA) was 11%. It also gave an inhibition at 10 µM (Sigma σ1) of 33%, an inhibition at 10 µM [2] of -42% and an inhibition at 10 µM (Adrenergic α1B) of -15%. The inhibition at 10 µM (Adrenergic β1) was 4%, the inhibition at 10 µM (Cannabinoid CB1) was 20% and the inhibition at 10 µM (Estrogen ERα) was 6%. The inhibition at 10 µM (Melatonin MT1) was -3%, the inhibition at 10 µM (Endothelin ETB) was 0% and the inhibition at 10 µM (Dopamine D2S) was 12%. The inhibition at 10 µM (Adrenergic α2A) was 14%, the inhibition at 10 µM (Muscarinic M3) was 9% and the inhibition at 10 µM [3] was 0%. The inhibition at 10 µM (Muscarinic M1) was 0%, the inhibition at 10 µM (Bradykinin B1) was -3% and the inhibition at 10 µM (Adenosine A2A) was 16%. For the same molecule, the inhibition at 10 µM (Neuropeptide Y Y2) was -11%, the inhibition at 10 µM (Adenosine A1) was 33% and the inhibition at 10 µM [4] was -5%. The inhibition at 10 µM (Adrenergic β2) was 12%, the inhibition at 10 µM (Adenosine A3) was 45% and the inhibition at 10 µM (Histamine H3) was 0%. For the same molecule, the inhibition at 10 µM [5] was 13%, the inhibition at 10 µM (Histamine H1) was 42% and the inhibition at 10 µM [6] was 25%. The inhibition at 10 µM (Interleukin IL-1 R1) was 19%, the inhibition at 10 µM (Bradykinin B2) was -27% and the inhibition at 10 µM (Muscarinic M2) was 7%. For the same molecule, the inhibition at 10 µM (Dopamine D4.4) was -15%, the inhibition at 10 µM (Dopamine D3) was 23% and the inhibition at 10 µM (Prostanoid EP4) was 34%. It also gave an inhibition at 10 µM (Adrenergic α1A) of 5%, an inhibition at 10 µM (Tachykinin NK1) of -2% and an inhibition at 10 µM (Androgen (Testosterone)) of 79%. It also gave an inhibition at 10 µM [7] of 2%, an inhibition at 10 µM [8] of 86% and an inhibition at 10 µM (Histamine H2) of -54%. For the same molecule, the inhibition at 10 µM (Serotonin 5-HT2B) was 63%, the inhibition at 10 µM [9] was 75% and the inhibition at 10 µM [10] was -14%. The inhibition at 10 µM (Glucocorticoid) was -4%.
